Test results from patent US9724315B2, “Compounded transdermal pain management” (CMPD Licensing, LLC, priority 2011, dated 2017).
Where a name gives a salt, the structure may show the parent alone. Read-outs that look alike come from different tables or passages of the source.

Settings: for percent permeation of applied dose beyond the stratum corneum: single dose, four drugs in combination; for time of (initial) peak flux after dose application: base composition Lipoderm ActiveMax, four drugs applied in combination; for mean flux of percutaneous absorption: ex vivo human trunk skin
Experimental: An evaluation of the percutaneous absorption of ketamine HCL, gabapentin, clonidine HCL, and baclofen in both Lipoderm® and Lipoderm® ActiveMax™ into human trunk skin, in vitro, using the Franz skin finite dose model was performed. The study was designed to evaluate the percutaneous absorption harmacokinetics of ketamine HCL, gabapentin, clonidine HCL, and baclofen. Absorption was measured in human cadaver skin, in vitro, using the finite dose technique and Franz diffusion cells.
Ketamine HCL 5% w/w, gabapentin 10% w/w, clonidine HCL 0.2% w/w and baclofen 2% w/w, in Lipoderm® and Lipoderm® ActiveMax, were tested on triplicate sections from three different cadaver skin donors for the percutaneous absorption of ketamine HCL, gabapentin, clonidine HCL, and baclofen over a 48-hour dose period. At pre-selected times after dose application, the dermal receptor solution was removed in its entirety, replaced with fresh receptor solution, and an aliquot saved for subsequent analysis. In addition, the epidermis and dermis were recovered and evaluated for drug content. The samples were analyzed for ketamine HCL, gabapentin, clonidine HCL, and baclofen content by High Performance Liquid Chromatography (HPLC)/MS.
The model uses ex vivo animal, human cadaver, or surgical skin mounted in specially designed diffusion cells that allow the skin to be maintained at a temperature and humidity that match typical in vivo conditions. (See Franz, T. J., Percutaneous Absorption: On the Relevance of In Vitro Data. J. Invest. Dermatol, 1975, 64:190-195.)
A finite dose (e.g., 4-7 mg/cm^2) of formulation may be applied to the outer surface of the skin and drug absorption may be measured by monitoring its rate of appearance in the receptor solution bathing the inner surface of the skin. Data defining total absorption, rate of absorption, as well as skin content may be accurately determined in this model. The method has historic precedent for accurately predicting in vivo percutaneous absorption kinetics. (See Franz T. J., The Cadaver Skin Absorption Mode and the Drug Development Process. Pharmacopeial Forum 34(5): 1349-1356, 2008; see also Franz T. J., Lehman P. A., and Raney S., Use of Excised Human Skin to Assess the Bioequivalence of Topical Products. Skin Pharmacol Physiol 22:276-286, 2009.)
During the evaluation, percutaneous adsorption was measured using the in vitro cadaver skin finite dose technique. Human cadaver trunk skin without obvious signs of skin disease, obtained within approximately 24 to 48 hours of death, was used in this study. The skin was dermatomed, cryopreserved, sealed in a water-impermeable bag and stored at approximately −70° C. until the day of the experiment. Prior to use, the skin was thawed in approximately 37° C. water, then rinsed in water to remove any adherent blood or other material from the surface.
Skin from three donors was cut into multiple smaller sections large enough to fit on an approximately nominal 0.8 cm^2 Franz diffusion cells. The dermal chamber was filled to capacity with a reservoir solution of phosphate-buffered isotonic saline (PBS), pH 7.4±0.1, with 0.1% Oleth-20 and 0.008% Gentamicin, and the epidermal cell (chimney) left open to ambient laboratory conditions. All cells were mounted in a diffusion apparatus in which the dermal bathing solution was stirred magnetically at approximately 600 RPM and the skin surface temperature maintained at 32.0°±1.0° C.
To assure the integrity of each skin section, its permeability to tritiated water was determined before application of the test products. (See Franz T. J. and Lehman P. A., The Use of Water Permeability as a Means of Validation for Skin Integrity in In Vitro Percutaneous Absorption Studies. Abst. J. Invest. Dermatol 1990, 94:525.) Following a brief (0.5-1 hour) equilibrium period, ^3H2O (NEN, Boston, Mass., sp. Act. ˜0.5 μCi/mL) was layered across the top of the skin so that the entire exposed surface was covered (approximately 250 to 500 μL).

[1] = Lipoderm ActiveMax base, four drugs simultaneously, intact
[2] = Lipoderm ActiveMax base, about 1 hour after single application
[3] = Lipoderm ActiveMax base, about 3 hours after single application
[4] = Lipoderm ActiveMax base, about 6 hours after single application
[5] = Lipoderm ActiveMax base, about 10 hours after single application
[6] = Lipoderm ActiveMax base, about 18 hours after single application
[7] = Lipoderm ActiveMax base, about 28 hours after single application
[8] = Lipoderm ActiveMax base, about 40 hours after single application

Row | Compound | penetration of skin from the base composition [1] | percent permeation of applied dose beyond the stratum corneum (Lipoderm ActiveMax base) | percent permeation of applied dose beyond the stratum corneum (Lipoderm base) | time of (initial) peak flux after dose application | mean flux using Lipoderm ActiveMax compared with Lipoderm | minimum mean flux using Lipoderm ActiveMax compared with Lipoderm | penetration of skin from the base composition | mean flux of percutaneous absorption [2] | mean flux of percutaneous absorption [3] | mean flux of percutaneous absorption [4] | mean flux of percutaneous absorption [5] | mean flux of percutaneous absorption [6] | mean flux of percutaneous absorption [7] | mean flux of percutaneous absorption [8] | maximum mean flux (Lipoderm ActiveMax base, single application, 48 hours) | mean flux using Lipoderm ActiveMax compared with Lipoderm (ketamine: most of the 48 hours, from about 2 hours, clonidine: about two to about 40 hours after application) | maximum mean flux using Lipoderm ActiveMax compared with Lipoderm (single application, 48 hours)
1 | NCC(CC(=O)O)c1ccc(Cl)cc1 (stereo not drawn) [baclofen] | penetrate into and through ex vivo human trunk skin | approximately 5.5% | approximately 3.95% | approximately one |  |  |  |  |  |  |  |  |  |  |  |  | 
2 | Clc1cccc(Cl)c1N=C1NCCN1 [clonidine, clonidine HCL] |  |  |  |  | exceed | exceeded | penetrate into and through ex vivo human trunk skin | approximately 0.005 μg/cm^2/hr | approximately 0.007 μg/cm^2/hr | approximately 0.006 μg/cm^2/hr | approximately 0.008 μg/cm^2/hr | approximately 0.008 μg/cm^2/hr | approximately 0.011 μg/cm^2/hr | approximately 0.011 μg/cm^2/hr |  |  | 
3 | NCC1(CC(=O)O)CCCCC1 [gabapentin] | penetrate into and through ex vivo human trunk skin | approximately 2.6% |  | approximately one |  |  |  |  |  |  |  |  |  |  |  |  | 
4 | CNC1(c2ccccc2Cl)CCCCC1=O (stereo not drawn) [ketamine, ketamine HCL] | penetrate into and through ex vivo human trunk skin | approximately 53.4% | approximately 44.8% |  |  |  |  | approximately 0.75 μg/cm^2/hr | approximately 3.0 μg/cm^2/hr | approximately 4.1 μg/cm^2/hr | approximately 4.3 μg/cm^2/hr | approximately 2.4 μg/cm^2/hr | approximately 2.5 μg/cm^2/hr | approximately 1.9 μg/cm^2/hr | approximately 4.3 μg/cm^2/hr | exceed | exceeded
